Literature values as cited in patent publication US20250369985A1, “METHOD FOR DETERMINING THE THERAPEUTIC REGIMEN FOR AN INDIVIDUAL AND ITS USE” (MOSAIQUES DIAGNOSTICS AND THERAPEUTICS AG, priority 2022, published 2025).
Where two headings read alike, the source gives them in different places.

Test system: urinary proteins/peptides (71 biomarkers of CD71 classifier)

CC(=O)S[C@@H]1CC2=CC(=O)CC[C@]2(C)[C@H]2CC[C@@]3(C)[C@@H](CC[C@@]34CCC(=O)O4)[C@H]12 [drug B, Spironolactone]
f (fold-change of the abundance) (peptide 99900220 (Seq. ID No. 1)): 1 | f (fold-change of the abundance) (peptide 99900467 (Seq. ID No. 2)): 1 | f (fold-change of the abundance) (peptide 99901399 (Seq. ID No. 3)): 1 | f (fold-change of the abundance) (peptide 99902592 (Seq. ID No. 4)): 1 | f (fold-change of the abundance) (peptide 99903025 (Seq. ID No. 5)): 1 | f (fold-change of the abundance) (peptide 99904405 (Seq. ID No. 6)): 1 | f (fold-change of the abundance) (peptide 99904666 (Seq. ID No. 7)): 1 | f (fold-change of the abundance) (peptide 99904862 (Seq. ID No. 8)): 1 | f (fold-change of the abundance) (peptide 99905044 (Seq. ID No. 9)): 1 | f (fold-change of the abundance) (peptide 99905259 (Seq. ID No. 10)): 1 | f (fold-change of the abundance) (peptide 99905274 (Seq. ID No. 11)): 1 | f (fold-change of the abundance) (peptide 99905379 (Seq. ID No. 12)): 1 | f (fold-change of the abundance) (peptide 99905423 (Seq. ID No. 13)): 1 | f (fold-change of the abundance) (peptide 99905509 (Seq. ID No. 14)): 0.77 | f (fold-change of the abundance) (peptide 99905551 (Seq. ID No. 15)): 1.97 | f (fold-change of the abundance) (peptide 99906176 (Seq. ID No. 16)): 1 | f (fold-change of the abundance) (peptide 99907275 (Seq. ID No. 17)): 1 | f (fold-change of the abundance) (peptide 99907807 (Seq. ID No. 18)): 1 | f (fold-change of the abundance) (peptide 99908755 (Seq. ID No. 19)): 1 | f (fold-change of the abundance) (peptide 99908795 (Seq. ID No. 20)): 1 | f (fold-change of the abundance) (peptide 99908916 (Seq. ID No. 21)): 1 | f (fold-change of the abundance) (peptide 99909059 (Seq. ID No. 22)): 1 | f (fold-change of the abundance) (peptide 99910002 (Seq. ID No. 23)): 1 | f (fold-change of the abundance) (peptide 99910032 (Seq. ID No. 24)): 1 | f (fold-change of the abundance) (peptide 99910407 (Seq. ID No. 25)): 1 | f (fold-change of the abundance) (peptide 99910483 (Seq. ID No. 26)): 0.78 | f (fold-change of the abundance) (peptide 99910554 (Seq. ID No. 27)): 1 | f (fold-change of the abundance) (peptide 99910883 (Seq. ID No. 28)): 1 | f (fold-change of the abundance) (peptide 99911002 (Seq. ID No. 29)): 1 | f (fold-change of the abundance) (peptide 99911193 (Seq. ID No. 30)): 1 | f (fold-change of the abundance) (peptide 99911415 (Seq. ID No. 31)): 1 | f (fold-change of the abundance) (peptide 99911559 (Seq. ID No. 32)): 1 | f (fold-change of the abundance) (peptide 99911777 (Seq. ID No. 33)): 1 | f (fold-change of the abundance) (peptide 99912101 (Seq. ID No. 34)): 1 | f (fold-change of the abundance) (peptide 99912211 (Seq. ID No. 35)): 1 | f (fold-change of the abundance) (peptide 99912366 (Seq. ID No. 36)): 1.5 | f (fold-change of the abundance) (peptide 99912411 (Seq. ID No. 37)): 1 | f (fold-change of the abundance) (peptide 99912661 (Seq. ID No. 38)): 1 | f (fold-change of the abundance) (peptide 99913200 (Seq. ID No. 39)): 1.21 | f (fold-change of the abundance) (peptide 99913322 (Seq. ID No. 40)): 1 | f (fold-change of the abundance) (peptide 99913825 (Seq. ID No. 41)): 0.65 | f (fold-change of the abundance) (peptide 99914211 (Seq. ID No. 42)): 1 | f (fold-change of the abundance) (peptide 99914445 (Seq. ID No. 43)): 1 | f (fold-change of the abundance) (peptide 99914876 (Seq. ID No. 44)): 1.5 | f (fold-change of the abundance) (peptide 99914887 (Seq. ID No. 45)): 1 | f (fold-change of the abundance) (peptide 99914893 (Seq. ID No. 46)): 1 | f (fold-change of the abundance) (peptide 99914935 (Seq. ID No. 47)): 0.72 | f (fold-change of the abundance) (peptide 99915015 (Seq. ID No. 48)): 1 | f (fold-change of the abundance) (peptide 99915755 (Seq. ID No. 49)): 1 | f (fold-change of the abundance) (peptide 99915778 (Seq. ID No. 50)): 1 | f (fold-change of the abundance) (peptide 99915883 (Seq. ID No. 51)): 1 | f (fold-change of the abundance) (peptide 99916170 (Seq. ID No. 52)): 1 | f (fold-change of the abundance) (peptide 99916177 (Seq. ID No. 53)): 1.88 | f (fold-change of the abundance) (peptide 99916611 (Seq. ID No. 54)): 1 | f (fold-change of the abundance) (peptide 99916615 (Seq. ID No. 55)): 1 | f (fold-change of the abundance) (peptide 99916966 (Seq. ID No. 56)): 1 | f (fold-change of the abundance) (peptide 99917047 (Seq. ID No. 57)): 0.82 | f (fold-change of the abundance) (peptide 99917221 (Seq. ID No. 58)): 1 | f (fold-change of the abundance) (peptide 99917280 (Seq. ID No. 59)): 1 | f (fold-change of the abundance) (peptide 99917288 (Seq. ID No. 60)): 1 | f (fold-change of the abundance) (peptide 99917419 (Seq. ID No. 61)): 1 | f (fold-change of the abundance) (peptide 99917505 (Seq. ID No. 62)): 1 | f (fold-change of the abundance) (peptide 99917596 (Seq. ID No. 63)): 1 | f (fold-change of the abundance) (peptide 99917626 (Seq. ID No. 64)): 1 | f (fold-change of the abundance) (peptide 99917690 (Seq. ID No. 65)): 1 | f (fold-change of the abundance) (peptide 99917825 (Seq. ID No. 66)): 1 | f (fold-change of the abundance) (peptide 99917890 (Seq. ID No. 67)): 1 | f (fold-change of the abundance) (peptide 99917947 (Seq. ID No. 68)): 1 | f (fold-change of the abundance) (peptide 99918831 (Seq. ID No. 69)): 1.27 | f (fold-change of the abundance) (peptide 99918906 (Seq. ID No. 70)): 1 | f (fold-change of the abundance) (peptide 99918909 (Seq. ID No. 71)): 0.62
